Test results taken from patent publication US10092620B2, “Uses of cyclic peptides for treating and preventing atherosclerosis” (THE SCRIPPS RESEARCH INSTITUTE, priority 2013, dated 2018).
Non-standard residues stand in square brackets, D forms with d. 4Pal = N[C@@H](Cc1ccncc1)C(=O)O; d3Pal = N[C@H](Cc1cccnc1)C(=O)O; Aoc(2) = CCCCCC[C@H](N)C(=O)O; Orn = NCCC[C@H](N)C(=O)O

Tested on: HDL in human plasma
Assay: pre-beta HDL ELISA assay: remodeling HDL in human plasma in vitro
Assay type: biochemical
Settings: pre-beta HDL ELISA
Experimental: First, various cyclic peptides, including the majority of compounds shown in FIG. 2, were assessed for activities for remodeling HDL in human plasma in vitro. Unlike western blot which was used to generate data shown in FIG. 2, here a pre-beta HDL ELISA assay was used to measure pre-beta HDL levels. Results from the assay are shown in Table 1, which lists the peptides in the order of their activities in remodeling HDL.

Substance | Pre-beta HDL generated (normalized level)
19 (cyclo([dW]L[dW][Orn][dE]N[dE][Orn]); SMILES CC(C)C[C@@H]1NC(=O)[C@@H](Cc2c[nH]c3ccccc23)NC(=O)[C@H](CCCN)NC(=O)[C@@H](CCC(=O)O)NC(=O)[C@H](CC(N)=O)NC(=O)[C@@H](CCC(=O)O)NC(=O)[C@H](CCCN)NC(=O)[C@@H](Cc2c[nH]c3ccccc23)NC1=O) [compound 19] | 0.36
20 (cyclo([dW]L[dL]E[dE]K[dK]N); SMILES CC(C)C[C@@H]1NC(=O)[C@@H](Cc2c[nH]c3ccccc23)NC(=O)[C@H](CC(N)=O)NC(=O)[C@@H](CCCCN)NC(=O)[C@H](CCCCN)NC(=O)[C@@H](CCC(=O)O)NC(=O)[C@H](CCC(=O)O)NC(=O)[C@@H](CC(C)C)NC1=O) [compound 20] | 0.07
22 (cyclo([dW][Aoc(2)][dW]S[dE]Q[dS][Orn]); SMILES CCCCCC[C@@H]1NC(=O)[C@@H](Cc2c[nH]c3ccccc23)NC(=O)[C@H](CCCN)NC(=O)[C@@H](CO)NC(=O)[C@H](CCC(N)=O)NC(=O)[C@@H](CCC(=O)O)NC(=O)[C@H](CO)NC(=O)[C@@H](Cc2c[nH]c3ccccc23)NC1=O) [compound 22] | 0.13
23 (cyclo([dW]L[dW]R[dE]N[dE][Orn]); SMILES CC(C)C[C@@H]1NC(=O)[C@@H](Cc2c[nH]c3ccccc23)NC(=O)[C@H](CCCN)NC(=O)[C@@H](CCC(=O)O)NC(=O)[C@H](CC(N)=O)NC(=O)[C@@H](CCC(=O)O)NC(=O)[C@H](CCCNC(=N)N)NC(=O)[C@@H](Cc2c[nH]c3ccccc23)NC1=O) [compound 23] | 0.16
24 (cyclo([dW]L[dW]H[dE]Q[dE]H); SMILES CC(C)C[C@@H]1NC(=O)[C@@H](Cc2c[nH]c3ccccc23)NC(=O)[C@H](Cc2c[nH]cn2)NC(=O)[C@@H](CCC(=O)O)NC(=O)[C@H](CCC(N)=O)NC(=O)[C@@H](CCC(=O)O)NC(=O)[C@H](Cc2c[nH]cn2)NC(=O)[C@@H](Cc2c[nH]c3ccccc23)NC1=O) [compound 24] | 0.09
25 (cyclo([dY]W[dY]K[dS]H[dA]E); SMILES C[C@H]1NC(=O)[C@H](Cc2c[nH]cn2)NC(=O)[C@@H](CO)NC(=O)[C@H](CCCCN)NC(=O)[C@@H](Cc2ccc(O)cc2)NC(=O)[C@H](Cc2c[nH]c3ccccc23)NC(=O)[C@@H](Cc2ccc(O)cc2)NC(=O)[C@H](CCC(=O)O)NC1=O) [compound 25] | 0.19
26 (cyclo([dW]L[dL][dW]K[dD]D[dK]); not fully specified (residues 5, 7)) [compound 26] | 0.36
30 (cyclo([dW]L[dW]S[dE]Q[dS]K)) [compound 30] | 0.06
34 (cyclo([dY]D[dY]W[dY]H[dA]K); not fully specified (residues 2, 4, 6, 8)) [compound 34] | 0.08
35 (cyclo([dW]L[dW]R[dE]Q[dE][Orn]); SMILES CC(C)C[C@@H]1NC(=O)[C@@H](Cc2c[nH]c3ccccc23)NC(=O)[C@H](CCCN)NC(=O)[C@@H](CCC(=O)O)NC(=O)[C@H](CCC(N)=O)NC(=O)[C@@H](CCC(=O)O)NC(=O)[C@H](CCCNC(=N)N)NC(=O)[C@@H](Cc2c[nH]c3ccccc23)NC1=O) [compound 35] | 0.02
40 (cyclo([dW]L[dW]S[dE]Q[dH]K); SMILES CC(C)C[C@@H]1NC(=O)[C@@H](Cc2c[nH]c3ccccc23)NC(=O)[C@H](CCCCN)NC(=O)[C@@H](Cc2c[nH]cn2)NC(=O)[C@H](CCC(N)=O)NC(=O)[C@@H](CCC(=O)O)NC(=O)[C@H](CO)NC(=O)[C@@H](Cc2c[nH]c3ccccc23)NC1=O) [compound 40] | 0.40
47 (cyclo(WIW[dW][dK][dH][dK][dH]); SMILES CC[C@H](C)[C@@H]1NC(=O)[C@H](Cc2c[nH]c3ccccc23)NC(=O)[C@@H](Cc2c[nH]cn2)NC(=O)[C@@H](CCCCN)NC(=O)[C@@H](Cc2c[nH]cn2)NC(=O)[C@@H](CCCCN)NC(=O)[C@@H](Cc2c[nH]c3ccccc23)NC(=O)[C@H](Cc2c[nH]c3ccccc23)NC1=O) [compound 47] | 0.79
48 (cyclo([dW]F[dY]Y[dH][Orn][dR]S); SMILES N=C(N)NCCC[C@H]1NC(=O)[C@H](CCCN)NC(=O)[C@@H](Cc2c[nH]cn2)NC(=O)[C@H](Cc2ccc(O)cc2)NC(=O)[C@@H](Cc2ccc(O)cc2)NC(=O)[C@H](Cc2ccccc2)NC(=O)[C@@H](Cc2c[nH]c3ccccc23)NC(=O)[C@H](CO)NC1=O) [compound 48] | 0.70
49 (cyclo([4Pal][dW]L[dL]H[dS]K[dK]); not fully specified; printed as c[(PA)wLlHsKk]) [compound 49] | 0.67
50 (cyclo(WIW[dR]E[dQ]E[dR]); SMILES CC[C@H](C)[C@@H]1NC(=O)[C@H](Cc2c[nH]c3ccccc23)NC(=O)[C@@H](CCCNC(=N)N)NC(=O)[C@H](CCC(=O)O)NC(=O)[C@@H](CCC(N)=O)NC(=O)[C@H](CCC(=O)O)NC(=O)[C@@H](CCCNC(=N)N)NC(=O)[C@H](Cc2c[nH]c3ccccc23)NC1=O) [compound 50] | 0.54
51 (cyclo([dF]W[dW]Y[dT]R[dH]S); SMILES C[C@H](O)[C@H]1NC(=O)[C@H](Cc2ccc(O)cc2)NC(=O)[C@@H](Cc2c[nH]c3ccccc23)NC(=O)[C@H](Cc2c[nH]c3ccccc23)NC(=O)[C@@H](Cc2ccccc2)NC(=O)[C@H](CO)NC(=O)[C@@H](Cc2c[nH]cn2)NC(=O)[C@H](CCCNC(=N)N)NC1=O) [compound 51] | 1.44
52 (cyclo([dW]F[dF]Y[dR]H[dH]S); SMILES N=C(N)NCCC[C@H]1NC(=O)[C@H](Cc2ccc(O)cc2)NC(=O)[C@@H](Cc2ccccc2)NC(=O)[C@H](Cc2ccccc2)NC(=O)[C@@H](Cc2c[nH]c3ccccc23)NC(=O)[C@H](CO)NC(=O)[C@@H](Cc2c[nH]cn2)NC(=O)[C@H](Cc2c[nH]cn2)NC1=O) [compound 52] | 0.52
54 (cyclo([dW]L[dW]R[dE]Q[dE]R); SMILES CC(C)C[C@@H]1NC(=O)[C@@H](Cc2c[nH]c3ccccc23)NC(=O)[C@H](CCCNC(=N)N)NC(=O)[C@@H](CCC(=O)O)NC(=O)[C@H](CCC(N)=O)NC(=O)[C@@H](CCC(=O)O)NC(=O)[C@H](CCCNC(=N)N)NC(=O)[C@@H](Cc2c[nH]c3ccccc23)NC1=O) [compound 54] | 0.46
55 (cyclo(L[dW]L[dW]L[dS]E[dK]); SMILES CC(C)C[C@@H]1NC(=O)[C@@H](Cc2c[nH]c3ccccc23)NC(=O)[C@H](CC(C)C)NC(=O)[C@@H](Cc2c[nH]c3ccccc23)NC(=O)[C@H](CC(C)C)NC(=O)[C@@H](CCCCN)NC(=O)[C@H](CCC(=O)O)NC(=O)[C@@H](CO)NC1=O) [compound 55] | 0.35
56 (cyclo([dF]F[dY]Y[dS]R[dK][Orn]); ring closure inferred) [compound 56] | 0.31
57 (cyclo([dW]L[dW]K[dS]K); SMILES CC(C)C[C@@H]1NC(=O)[C@@H](Cc2c[nH]c3ccccc23)NC(=O)[C@H](CCCCN)NC(=O)[C@@H](CO)NC(=O)[C@H](CCCCN)NC(=O)[C@@H](Cc2c[nH]c3ccccc23)NC1=O) [compound 57] | 0.30
58 (cyclo([d3Pal]L[dW]K[dS]K[dS]K); ring closure inferred) [compound 58] | 0.27
